Assays:
Type in all cases: in vivo, human
[1] = tested on: APOE4 heterozygous patients with Alzheimer's disease; test: Phase 3 trials of tramiprosate, ADAS-Cog score, heterozygous APOE4+ patients; details: Heterozygous APOE4+ patients ≤85 years
Experimental: The delta value in all of these tables is calculated by measuring the increase in score over baseline for each patient in a treatment group and obtaining the mean increase for such group and then subtracting that value from the mean increase in score over baseline for all patients in the placebo group. Thus, a positive delta value in these tables represents an improvement over the placebo group. Phase 3 human clinical trials of tramiprosate to treat Alzheimer's disease at doses of 100 mg BID and 150 mg BID for up to 78 weeks were run in both North America and Europe (1691 total patients enrolled). Placebos in both trials were treatment with donepezil either alone or in combination with memantine. ADAS-Cog scores and CDR-SB scores were obtained every 13 weeks for patients that remained in the trial. The patients were genotyped for APOE4 and the severity of their disease was measured using MMSE prior to the beginning of treatment. The data from both trials were merged for certain statistical analyses. […] We then performed additional subgroup analysis, subgrouping by APOE4 genotype/allele status (APOE4 heterozygous or APOE4 homozygous) and by disease severity (mild vs moderate) to determine if the number of c alleles and/or the severity of disease predicted a better outcome of tramiprosate therapy. […] In Table 3, *control treatment is donepezil either alone or in combination with memantine. Positive delta values quantitate the amount by which average increase in ADAS-Cog Score points above baseline for the control group exceeded the average increase in ADAS-Cog Score points above baseline for the treatment group.

[2] = tested on: APOE4/4 homozygous patients with Alzheimer's disease; test: Phase 3 trials of tramiprosate, ADAS-Cog and CDR-SB by baseline MMSE, APOE4/4 homozygous subjects; details: 150 mg BID
Experimental: Analysis of the efficacy or tramiprosate in APOE4/4 homozygous subjects based on baseline MMSE was performed to evaluate for differences in drug response between Mild and Moderate patients. […] analyses were performed on the following baseline MMSE categories: Mild-to-Moderate AD population (baseline MMSE 16-26 inclusive), Mild AD population (baseline MMSE 20-26 inclusive), and the More Mild AD population (baseline MMSE 22-26 inclusive). The data is shown below in FIG. 7, panels A and B.

[3] = Safety in Phase 3 tramiprosate studies
Experimental: In some embodiments, the subject is determined to have moderate AD when the subject has a baseline MMSE score in the range of 16-19. In some embodiments, the subject is determined to have mild AD when the subject has a baseline MMSE score in the range of 20-26. […] Safety data from Phase 3 tramiprosate studies support bridging to the ALZ-801 safety database, based on bioequivalence. The disclosures in provisional application Ser. No. 62/216,404, filed Sep. 10, 2015, 62/290,287, filed Feb. 2, 2016, and 62/365,809, filed Jul. 22, 2016 are incorporated herein for all purposes and particularly regarding dosages and formulations.

NCCCS(=O)(=O)O [Tramiprosate, 3-amino-1-propanesulfonic acid]
ADAS-Cog Score Change over Standard of Care (Δ improvement vs control) ([1]; Mild (MMSE 20-26), 100 mg BID, 52 weeks): 0.9 points | ADAS-Cog Score Change over Standard of Care (Δ improvement vs control) ([1]; Mild (MMSE 20-26), 100 mg BID, 65 weeks): −0.3 points | ADAS-Cog Score Change over Standard of Care (Δ improvement vs control) ([1]; Mild (MMSE 20-26), 100 mg BID, 78 weeks): 0.8 points | ADAS-Cog Score Change over Standard of Care (Δ improvement vs control) ([1]; Mild (MMSE 20-26), 150 mg BID, 52 weeks): 0.1 points | ADAS-Cog Score Change over Standard of Care (Δ improvement vs control) ([1]; Mild (MMSE 20-26), 150 mg BID, 65 weeks): −0.6 points | ADAS-Cog Score Change over Standard of Care (Δ improvement vs control) ([1]; Mild (MMSE 20-26), 150 mg BID, 78 weeks): −0.5 points | ADAS-Cog Score Change over Standard of Care (Δ improvement vs control) ([1]; Mild-to-Moderate (MMSE 16-26), 100 mg BID, 52 weeks): 2.0 points | ADAS-Cog Score Change over Standard of Care (Δ improvement vs control) ([1]; Mild-to-Moderate (MMSE 16-26), 100 mg BID, 65 weeks): 0.8 points | ADAS-Cog Score Change over Standard of Care (Δ improvement vs control) ([1]; Mild-to-Moderate (MMSE 16-26), 100 mg BID, 78 weeks): 1.1 points | ADAS-Cog Score Change over Standard of Care (Δ improvement vs control) ([1]; Mild-to-Moderate (MMSE 16-26), 150 mg BID, 52 weeks): 0.5 points | ADAS-Cog Score Change over Standard of Care (Δ improvement vs control) ([1]; Mild-to-Moderate (MMSE 16-26), 150 mg BID, 65 weeks): 0.0 points | ADAS-Cog Score Change over Standard of Care (Δ improvement vs control) ([1]; Mild-to-Moderate (MMSE 16-26), 150 mg BID, 78 weeks): −0.4 points | ADAS-Cog Score Change over Standard of Care (Δ improvement vs control) ([1]; Moderate (MMSE 16-19), 100 mg BID, 52 weeks): 4.4 points | ADAS-Cog Score Change over Standard of Care (Δ improvement vs control) ([1]; Moderate (MMSE 16-19), 100 mg BID, 65 weeks): 3.4 points | ADAS-Cog Score Change over Standard of Care (Δ improvement vs control) ([1]; Moderate (MMSE 16-19), 100 mg BID, 78 weeks): 2 points | ADAS-Cog Score Change over Standard of Care (Δ improvement vs control) ([1]; Moderate (MMSE 16-19), 150 mg BID, 52 weeks): 1.5 points | ADAS-Cog Score Change over Standard of Care (Δ improvement vs control) ([1]; Moderate (MMSE 16-19), 150 mg BID, 65 weeks): 1.4 points | ADAS-Cog Score Change over Standard of Care (Δ improvement vs control) ([1]; Moderate (MMSE 16-19), 150 mg BID, 78 weeks): 0 points | Improvement compared with patients with lower MMSE at baseline ([2]; Mild AD (baseline MMSE ≥20) or More Mild AD (baseline MMSE ≥22)): higher improvement | Efficacy and cognitive benefit by baseline MMSE ([2]; baseline MMSE ≥22 (More Mild), 78 weeks): highest efficacy and a sustained cognitive benefit | Most common adverse event [3]: nausea | Safety profile [3]: favorable safety profile

Reference: patent US11191742B2, “Methods of treating neurodegenerative disorders in a particular population” (ALZHEON, INC., priority 2015, dated 2021)
